From patent publication EP4477653A1 (Perha Pharmaceuticals, priority 2023, dated 2024)

Test system: not listed separately
Assay: LogD (HPLC)
Type: physicochemical
Conditions: by HPLC; Table 2

| chromatographic logD | SMILES |
| --- | --- |
| 3.09 | COC1CCC(Nc2cc(NCc3ccccc3)c3nnc(C(C)C)n3n2)CC1 (racemic) [compound 120, N8-benzyl-3-isopropyl-N6-(4-methoxycyclohexyl)-[1,2,4]triazolo[4,3-b]pyridazine-6,8-diamine] |
| 2.87 | CC(C)c1nnc2c(NCc3ccccc3)cc(NCC3CCCO3)nn12 (racemic) [compound 142, N8-benzyl-3-isopropyl-N6-(tetrahydrofuran-2-ylmethyl)-[1,2,4]triazolo[4,3-b]pyridazine-6,8-diamine] |
| 2.22 | CC(C)c1nnc2c(NCc3ccccc3)cc(N[C@H]3CC[C@H](O)CC3)nn12 [(135), racemic trans-4-[[8-(benzylamino)-3-isopropyl-[1,2,4]triazolo[4,3-b]pyridazin-6-yl]amino]cyclohexanol] |

| SMILES | chromatographic logD |
| --- | --- |
| CC(C)c1nnc2c(NCc3ccccc3)cc(NC3CCCCC3O)nn12 (racemic) [compound 134, racemic trans-2-[[8-(benzylamino)-3-isopropyl-[1,2,4]triazolo[4,3-b]pyridazin-6-yl]amino]cyclohexanol] | 2.73 |

Target: T1, human recombinant A3AR (expressed in HEK-293 cells) (Homo sapiens, UniProt P0DMS8)
T1 construct: host or cells: HEK-293 cells
T1 sequence (P0DMS8 1-318): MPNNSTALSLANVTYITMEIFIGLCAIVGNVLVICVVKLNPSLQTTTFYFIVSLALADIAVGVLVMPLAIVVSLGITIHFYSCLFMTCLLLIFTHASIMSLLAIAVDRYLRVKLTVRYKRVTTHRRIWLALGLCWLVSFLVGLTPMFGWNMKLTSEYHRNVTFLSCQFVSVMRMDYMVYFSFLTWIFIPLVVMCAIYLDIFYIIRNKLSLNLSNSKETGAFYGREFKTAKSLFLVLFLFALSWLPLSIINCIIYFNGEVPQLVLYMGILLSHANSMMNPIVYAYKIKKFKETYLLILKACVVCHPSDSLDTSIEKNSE
Assay: Adenosine receptors antagonism assay (Eurofins), [125I]-AB-MECA radioligand competition
Type: binding
Conditions: [125I]-AB-MECA 0.15 nM, r.t., 120 min; IC50 from dose-response curves; read-out: Potency Class A3AR
Method: Assays were carried out at r.t. for 120 min. Compounds were initially tested at three concentrations (0.01, 0.1, 1 µM). […] IC50 values, which is the concentration causing a half-maximal inhibition of control specific binding, and Hill coefficients (nH) were determined by non-linear regression analysis of the competition curves generated with mean replicate values using Hill equation curve fitting. The inhibition constants (Ki) were calculated using the Cheng Prusoff equation.

| IC50 | SMILES |
| --- | --- |
| 10 to 100 nM | CCNc1cc(NCc2ccccn2)c2nnc(C3CC3)n2n1 [compound 189, 3-cyclopropyl-N6-ethyl-N8-(2-pyridylmethyl)-[1,2,4]triazolo[4,3-b]pyridazine-6,8-diamine] |
| 10 to 100 nM | CCCNc1cc(NCc2ccccn2)c2nnc(C3CC3)n2n1 [compound 190, 3-cyclopropyl-N6-propyl-N8-(pyridin-2-ylmethyl)-[1,2,4]triazolo[4,3-b]pyridazine-6,8-diamine] |
| 1 to 10 nM | CC(C)Nc1cc(NCc2ccccn2)c2nnc(C3CC3)n2n1 [compound 192, 3-cyclopropyl-N6-isopropyl-N8-(pyridin-2-ylmethyl)-[1,2,4]triazolo[4,3-b]pyridazine-6,8-diamine] |
| 1 to 10 nM | CC(C)(C)Nc1cc(NCc2ccccn2)c2nnc(C3CC3)n2n1 [compound 195, N6-(tert-butyl)-3-cyclopropyl-N8-(pyridin-2-ylmethyl)-[1,2,4]triazolo[4,3-b]pyridazine-6,8-diamine] |
| 10 to 100 nM | c1ccc(CNc2cc(NC3CC3)nn3c(C4CC4)nnc23)nc1 [compound 197, N6,3-dicyclopropyl-N8-(pyridin-2-ylmethyl)-[1,2,4]triazolo[4,3-b]pyridazine-6,8-diamine] |
| 1 to 10 nM | c1ccc(CNc2cc(NC3CCC3)nn3c(C4CC4)nnc23)nc1 [compound 198, N6-cyclobutyl-3-cyclopropyl-N8-(pyridin-2-ylmethyl)-[1,2,4]triazolo[4,3-b]pyridazine-6,8-diamine] |
| 1 to 10 nM | c1ccc(CNc2cc(NC3CCCC3)nn3c(C4CC4)nnc23)nc1 [compound 199, N6-cyclopentyl-3-cyclopropyl-N8-(pyridin-2-ylmethyl)-[1,2,4]triazolo[4,3-b]pyridazine-6,8-diamine] |
| 1 to 10 nM | c1ccc(CNc2cc(NC3CCCCC3)nn3c(C4CC4)nnc23)nc1 [compound 200, N6-cyclohexyl-3-cyclopropyl-N8-(pyridin-2-ylmethyl)-[1,2,4]triazolo[4,3-b]pyridazine-6,8-diamine] |
| 1 to 10 nM | c1ccc(CNc2cc(NC3CCCCCC3)nn3c(C4CC4)nnc23)nc1 [compound 201, N6-cycloheptyl-3-cyclopropyl-N8-(pyridin-2-ylmethyl)-[1,2,4]triazolo[4,3-b]pyridazine-6,8-diamine] |
| 1 to 10 nM | c1ccc(CNc2cc(NC34CC5CC(CC(C5)C3)C4)nn3c(C4CC4)nnc23)nc1 [compound 202, N6-((3s,5s,7s)-adamantan-1-yl)-3-cyclopropyl-N8-(pyridin-2-ylmethyl)-[1,2,4]triazolo[4,3-b]pyridazine-6,8-diamine] |
| 10 to 100 nM | c1ccc(CNc2cc(NCC3CC3)nn3c(C4CC4)nnc23)nc1 [compound 203, 3-cyclopropyl-N6-(cyclopropylmethyl)-N8-(pyridin-2-ylmethyl)-[1,2,4]triazolo[4,3-b]pyridazine-6,8-diamine] |
| 1 to 10 nM | c1ccc(CNc2cc(NCC3CCC3)nn3c(C4CC4)nnc23)nc1 [compound 204, N6-(cyclobutylmethyl)-3-cyclopropyl-N8-(pyridin-2-ylmethyl)-[1,2,4]triazolo[4,3-b]pyridazine-6,8-diamine] |
| 1 to 10 nM | c1ccc(CNc2cc(NC3CC4(CCC4)C3)nn3c(C4CC4)nnc23)nc1 [compound 205, 3-cyclopropyl-N8-(pyridin-2-ylmethyl)-N6-(spiro[3.3]heptan-2-yl)-[1,2,4]triazolo[4,3-b]pyridazine-6,8-diamine] |
| 1 to 10 nM | CC1(CNc2cc(NCc3ccccn3)c3nnc(C4CC4)n3n2)CCC1 [compound 206, 3-cyclopropyl-N6-((1-methylcyclobutyl)methyl)-N8-(pyridin-2-ylmethyl)-[1,2,4]triazolo[4,3-b]pyridazine-6,8-diamine] |
| 100 to 1000 nM | c1ccc(CNc2cc(N[C@@H]3CCOC3)nn3c(C4CC4)nnc23)nc1 [compound 213, (R)-3-cyclopropyl-N8-(pyridin-2-ylmethyl)-N6-(tetrahydrofuran-3-yl)-[1,2,4]triazolo[4,3-b]pyridazine-6,8-diamine] |
| 100 to 1000 nM | c1ccc(CNc2cc(N[C@@H]3CCCOC3)nn3c(C4CC4)nnc23)nc1 [compound 214, (R)-3-cyclopropyl-N8-(pyridin-2-ylmethyl)-N6-(tetrahydro-2H-pyran-3-yl)-[1,2,4]triazolo[4,3-b]pyridazine-6,8-diamine] |

Second part, the compound before the results:

| SMILES | IC50 |
| --- | --- |
| COC1CCC(Nc2cc(NCc3ccccc3)c3nnc(C(C)C)n3n2)CC1 (racemic) [compound 120, N8-benzyl-3-isopropyl-N6-(4-methoxycyclohexyl)-[1,2,4]triazolo[4,3-b]pyridazine-6,8-diamine] | 100 to 1000 nM |
| CC(C)c1nnc2c(NCc3ccccc3)cc(NCC3CCCO3)nn12 (racemic) [compound 142, N8-benzyl-3-isopropyl-N6-(tetrahydrofuran-2-ylmethyl)-[1,2,4]triazolo[4,3-b]pyridazine-6,8-diamine] | 100 to 1000 nM |
| COc1ccc(CNc2cc(NCc3ccccn3)c3nnc(C4CC4)n3n2)cc1 [compound 187, 3-cyclopropyl-N6-(4-methoxybenzyl)-N8-(pyridin-2-ylmethyl)-[1,2,4]triazolo[4,3-b]pyridazine-6,8-diamine] | 1 to 10 nM |
| COc1ccc(CN(C)c2cc(NCc3ccccn3)c3nnc(C4CC4)n3n2)cc1 [compound 188, 3-cyclopropyl-N6-(4-methoxybenzyl)-N6-methyl-N8-(pyridin-2-ylmethyl)-[1,2,4]triazolo[4,3-b]pyridazine-6,8-diamine] | 100 to 1000 nM |
| CCCCNc1cc(NCc2ccccn2)c2nnc(C3CC3)n2n1 [compound 191, N6-butyl-3-cyclopropyl-N8-(pyridin-2-ylmethyl)-[1,2,4]triazolo[4,3-b]pyridazine-6,8-diamine] | 1 to 10 nM |
| CC(C)CNc1cc(NCc2ccccn2)c2nnc(C3CC3)n2n1 [compound 194, 3-cyclopropyl-N6-isobutyl-N8-(pyridin-2-ylmethyl)-[1,2,4]triazolo[4,3-b]pyridazine-6,8-diamine] | 10 to 100 nM |
| CCC(CC)CNc1cc(NCc2ccccn2)c2nnc(C3CC3)n2n1 [compound 196, 3-cyclopropyl-N6-(2-ethylbutyl)-N8-(pyridin-2-ylmethyl)-[1,2,4]triazolo[4,3-b]pyridazine-6,8-diamine] | 1 to 10 nM |
| c1ccc(CNc2cc(N3CCCCC3)nn3c(C4CC4)nnc23)nc1 [compound 207, 3-cyclopropyl-6-(1-piperidyl)-N-(2-pyridylmethyl)-[1,2,4]triazolo[4,3-b]pyridazin-8-amine] | 100 to 1000 nM |
| c1ccc(CNc2cc(NCc3ccco3)nn3c(C4CC4)nnc23)nc1 [compound 208, 3-cyclopropyl-N6-(furan-2-ylmethyl)-N8-(pyridin-2-ylmethyl)-[1,2,4]triazolo[4,3-b]pyridazine-6,8-diamine] | 1 to 10 nM |
| c1ccc(CNc2cc(NCc3ccoc3)nn3c(C4CC4)nnc23)nc1 [compound 209, 3-cyclopropyl-N6-(furan-3-ylmethyl)-N8-(pyridin-2-ylmethyl)-[1,2,4]triazolo[4,3-b]pyridazine-6,8-diamine] | 1 to 10 nM |
| c1ccc(CNc2cc(NCc3cccs3)nn3c(C4CC4)nnc23)nc1 [compound 210, 3-cyclopropyl-N8-(pyridin-2-ylmethyl)-N6-(thiophen-2-ylmethyl)-[1,2,4]triazolo[4,3-b]pyridazine-6,8-diamine] | 1 to 10 nM |
| CC[C@H](CO)Nc1cc(NCc2ccccn2)c2nnc(C3CC3)n2n1 [compound 211, (R)-2-((3-cyclopropyl-8-((pyridin-2-ylmethyl)amino)-[1,2,4]triazolo[4,3-b]pyridazin-6-yl)amino)butan-1-ol] | 10 to 100 nM |
| CC[C@@H](CO)Nc1cc(NCc2ccccn2)c2nnc(C3CC3)n2n1 [compound 212, (S)-2-((3-cyclopropyl-8-((pyridin-2-ylmethyl)amino)-[1,2,4]triazolo[4,3-b]pyridazin-6-yl)amino)butan-1-ol] | 10 to 100 nM |
| CCC(CC)Nc1cc(Nc2ccc(OC)nn2)c2nnc(C3CC3)n2n1 [compound 215, 3-cyclopropyl-N8-(6-methoxypyridazin-3-yl)-N6-(pentan-3-yl)-[1,2,4]triazolo[4,3-b]pyridazine-6,8-diamine] | < 1 nM |
| CCC(CC)Nc1cc(NCc2cccnn2)c2nnc(C3CC3)n2n1 [compound 216, 3-cyclopropyl-N6-(pentan-3-yl)-N8-(pyridazin-3-ylmethyl)-[1,2,4]triazolo[4,3-b]pyridazine-6,8-diamine] | 1 to 10 nM |
| CCC(CC)Nc1cc(NCCc2ccccc2)c2nnc(C3CC3)n2n1 [compound 217, 3-cyclopropyl-N6-(pentan-3-yl)-N8-phenethyl-[1,2,4]triazolo[4,3-b]pyridazine-6,8-diamine] | 1 to 10 nM |
| c1ccc(CNc2cc(NCc3ccsc3)nn3c(C4CC4)nnc23)nc1 [compound 218, 3-cyclopropyl-N8-(pyridin-2-ylmethyl)-N6-(thiophen-3-ylmethyl)-[1,2,4]triazolo[4,3-b]pyridazine-6,8-diamine] | 1 to 10 nM |

Same assay, conditions: read-out: Potency Class A3AR; [125I]-AB-MECA 0.15 nM, r.t., 120 min; IC50 from dose-response curves

| SMILES | IC50 |
| --- | --- |
| CC(C)c1nnc2c(NCc3ccccc3)cc(NC3CCCCC3O)nn12 (racemic) [compound 134, racemic trans-2-[[8-(benzylamino)-3-isopropyl-[1,2,4]triazolo[4,3-b]pyridazin-6-yl]amino]cyclohexanol] | 10 to 100 nM |
